Laboratory results taken from patent publication US20120165319A1, “INHIBITORS OF INTERLEUKIN-1 BETA CONVERTING ENZYME” (VERTEX PHARMACEUTICALS INCORPORATED, priority 1995, published 2012).

Assays:
ICE = target: T1, ICE (Homo sapiens, UniProt P29466); assay: Enzyme assay with UV-visible substrate (visible ICE assay, Succinyl-Tyr-Val-Ala-Asp-pNitroanilide); format: biochemical
T1 sequence (P29466 120-297 limits assumed): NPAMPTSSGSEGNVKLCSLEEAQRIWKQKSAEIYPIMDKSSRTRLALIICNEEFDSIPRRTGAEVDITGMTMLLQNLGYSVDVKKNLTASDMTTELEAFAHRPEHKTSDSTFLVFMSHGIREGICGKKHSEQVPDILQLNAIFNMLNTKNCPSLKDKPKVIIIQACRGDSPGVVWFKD
T1 sequence (P29466 317-404 limits assumed): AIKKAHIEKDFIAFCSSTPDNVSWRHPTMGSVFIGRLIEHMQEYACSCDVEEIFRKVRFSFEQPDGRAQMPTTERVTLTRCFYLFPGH
Description: 1. Enzyme Assay with Uv-Visible Substrate
This assay is run using an Succinyl-Tyr-Val-Ala-Asp-pNitroanilide substrate. Synthesis of analogous substrates is described by L. A. Reiter (Int. J. Peptide Protein Res. 12, 87-96 (1994)). The assay mixture contains:
The visible ICE assay is run in a 96-well microtiter plate. Buffer, ICE and DMSO (if inhibitor is present) are added to the wells in the order listed. The components are left to incubate at room temperature for 15 minutes starting at the time that all components are present in all wells. The microtiter plate reader is set to incubate at 37° C. After the 15 minute incubation, substrate is added directly to the wells and the reaction is monitored by following the release of the chromophore (pNA) at 405-603 nm at 37° C. for 20 minutes. A linear fit of the data is performed and the rate is calculated in mOD/min. DMSO is only present during experiments involving inhibitors, buffer is used to make up the volume to 100 μl in the other experiments.
For determination of enzyme inhibition constants (Ki) or the mode of inhibition (competitive, uncompetitive or noncompetitive), the rate data determined in the enzyme assays at varying inhibitor concentrations are computer-fit to standard enzyme kinetic equations (see I. H. Segel, Enzyme Kinetics, Wiley-Interscience, 1975).

[1] = tested on: IL-1β, human peripheral blood mononuclear cells (PBMC); assay: PBMC cell assay: IL-1β assay with human PBMC or enriched adherent mononuclear cells, LPS-stimulated; format: cell-based
Description: IL-1β Assay with a Mixed Population of Human Peripheral Blood Mononuclear Cells (PBMC) or Enriched Adherent Mononuclear Cells
Processing of pre-IL-1β by ICE can be measured in cell culture using a variety of cell sources. Human PBMC obtained from healthy donors provides a mixed population of lymphocyte subtypes and mononuclear cells that produce a spectrum of interleukins and cytokines in response to many classes of physiological stimulators. Adherent mononuclear cells from PBMC provides an enriched source of normal monocytes for selective studies of cytokine production by activated cells.
An initial dilution series of test compound in DMSO or ethanol is prepared, with a subsequent dilution into RPMI-10% FBS media (containing 2 mM L-glutamine, 10 mM HEPES, 50 U and 50 ug/ml pen/strep) respectively to yield drugs at 4× the final test concentration containing 0.4% DMSO or 0.4% ethanol. The final concentration of DMSO is 0.1% for all drug dilutions. A concentration titration which brackets the apparent Ki for a test compound determined in an ICE inhibition assay is generally used for the primary compound screen.
Generally 5-6 compound dilutions are tested and the cellular component of the assay is performed in duplicate, with duplicate ELISA determinations on each cell culture supernatant.
PBMC Isolation and IL-1 Assay:
Buffy coat cells isolated from one pint human blood (yielding 40-45 ml final volume plasma plus cells) are diluted with media to 80 ml and LeukoPREP separation tubes (Becton Dickinson) are each overlaid with 10 ml of cell suspension. After 15 min centrifugation at 1500-1800×g, the plasma/media layer is aspirated and then the mononuclear cell layer is collected with a Pasteur pipette and transferred to a 15 ml conical centrifuge tube (Corning). Media is added to bring the volume to 15 ml, gently mix the cells by inversion and centrifuge at 300×g for 15 min. Resuspend the PBMC pellet in a small volume of media, count cells and adjust to 6×10^6 cells/ml.
For the cellular assay, 1.0 ml of the cell suspension is added to each well of a 24-well flat bottom tissue culture plate (Corning), 0.5 ml test compound dilution and 0.5 ml LPS solution (Sigma #L-3012; 20 ng/ml solution prepared in complete RPMI media; final LPS concentration 5 ng/ml). The 0.5 ml additions of test compound and LPS are usually sufficient to mix the contents of the wells. Three control mixtures are run per experiment, with either LPS alone, solvent vehicle control, and/or additional media to adjust the final culture volume to 2.0 ml. The cell cultures are incubated for 16-18 hr at 37° C. in the presence of 5% CO2.
At the end of the incubation period, cells are harvested and transferred to 15 ml conical centrifuge tubes. After centrifugation for 10 min at 200×g, supernatants are harvested and transferred to 1.5 ml Eppendorf tubes. It may be noted that the cell pellet may be utilized for a biochemical evaluation of pre-IL-1β and/or mature IL-1β content in cytosol extracts by western blotting or ELISA with pre-IL-1β specific antisera.
Isolation of Adherent Mononuclear Cells:
PBMC are isolated and prepared as described above. Media (1.0 ml) is first added to wells followed by 0.5 ml of the PBMC suspension. After a one hour incubation, plates are gently shaken and nonadherent cells aspirated from each well. Wells are then gently washed three times with 1.0 ml of media and final resuspended in 1.0 ml media. The enrichment for adherent cells generally yields 2.5−3.0×10^5 cells per well. The addition of test compounds, LPS, cell incubation conditions and processing of supernatants proceeds as described above.
We have used Quantikine kits (R&D Systems) for measurement of mature IL-1β. Assays are performed according to the manufacturer's directions. Mature IL-1β levels of about 1-3 ng/ml in both PBMC and adherent mononuclear cell positive controls are observed. […]

[2] = Homo sapiens, PBMC, * = values obtained upon reassay
[3] = * = values obtained upon reassay

Structure (SMILES)	Ki (ICE; Table 5) [µM]	Ki (ICE; Table 17) [µM]	IC50 [1, 2] [µM]	further results
C[C@H]1CC(=O)N2CCC[C@@H](C(=O)N[C@H](C=O)CC(=O)O)N2C(=O)[C@H]1NC(=O)c1ccccc1 [Compound 257, [3S(1S,8S,9S)]3-(9-benzoylamino-6,10-dioxo-8-methyl-1,2,3,4,7,8,9,10-octahydro-6H-pyridazino-[1,2-a][1,2]diazepine-1-carboxamido)-4-oxobutanoic acid]	0.013		11	IC50 [1, 3]: 6.6 µM
CS(=O)(=O)N[C@H]1CCC(=O)N2CCC[C@@H](C(=O)N[C@@H](CC(=O)O)C(=O)CSc3nnnn3-c3ccccc3)N2C1=O [Compound 280b, [3S(1S,9S)]3-(6,10-Dioxo-9-methanesulphonamido-1,2,3,4,7,8,9,10-octahydro-6H-pyridazino[1,2-a][1,2]diazepine-1-carboxamido)-4-oxo-5(1-phenyl-1H-tetrazole-5-thio)pentanoic acid]				IC50 ([1]; Table 17): 13 µM
O=C[C@H](CC(=O)O)NC(=O)[C@@H]1CCCN2C(=O)CC[C@H](NC(=O)C3CC3)C(=O)N12 [Compound 413]	0.75		6.2	
COC(=O)N[C@H]1CCC(=O)N2CCC[C@@H](C(=O)N[C@H](C=O)CC(=O)O)N2C1=O [Compound 419]	0.28		> 8	
CNC(=O)N[C@H]1CCC(=O)N2CCC[C@@H](C(=O)N[C@H](C=O)CC(=O)O)N2C1=O [Compound 420]	1.2		8	IC50 [1, 3]: > 8 µM
CCS(=O)(=O)N[C@H]1CCC(=O)N2CCC[C@@H](C(=O)N[C@H](C=O)CC(=O)O)N2C1=O [Compound 421]	0.2		4.3	IC50 [1, 3]: 4.6 µM
O=C[C@H](CC(=O)O)NC(=O)[C@@H]1CCCN2C(=O)CC[C@H](NC(=O)C3CCCCC3)C(=O)N12 [Compound 426]	0.09		4.5	IC50 [1, 3]: 2.5 µM
CC(=O)Nc1ccccc1C(=O)N[C@H]1CCC(=O)N2CCC[C@@H](C(=O)N[C@H](C=O)CC(=O)O)N2C1=O [Compound 430]	0.06		> 8	
O=C[C@H](CC(=O)O)NC(=O)[C@@H]1CCCN2C(=O)CC[C@H](NC(=O)c3ccnc4ccccc34)C(=O)N12 [Compound 435]	0.008		4.4	
O=C[C@H](CC(=O)O)NC(=O)[C@@H]1CCCN2C(=O)CC[C@H](NC(=O)c3cnc4ccccc4c3)C(=O)N12 [Compound 436]	0.0075		2.7	
CS(=O)(=O)N[C@H]1CCC(=O)N2CCC[C@@H](C(=O)N[C@@H](CC(=O)O)C(=O)COC(=O)c3ccccc3Oc3ccccc3)N2C1=O [Compound 505c, [3S(1S,9S)]3-[6,10-Dioxo-9-(methanesulphonylamino)-1,2,3,4,7,8,9,10-octahydro-6H-pyridazino[1,2-a][1,2]diazepine-1-carboxamido]-4-oxo-5-(2-phenoxybenzoyloxy)pentanoic acid]				IC50 ([1]; Table 17): 1.5 µM
CS(=O)(=O)N[C@H]1CCC(=O)N2CCC[C@@H](C(=O)N[C@@H](CC(=O)O)C(=O)COC(=O)c3cccc(Oc4ccccc4)c3)N2C1=O [Compound 505d, [3S(1S,9S)]3-[6,10-Dioxo-9-(methanesulphonylamino)-1,2,3,4,7,8,9,10-octahydro-6H-pyridazino[1,2-a][1,2]diazepine-1-carboxamido]-4-oxo-5-(3-phenoxybenzoyloxy)pentanoic acid]				IC50 ([1]; Table 17): > 20 µM
CS(=O)(=O)N[C@H]1CCC(=O)N2CCC[C@@H](C(=O)N[C@@H](CC(=O)O)C(=O)COc3nc4ccccn4c(=O)c3Cl)N2C1=O [Compound 505f, [3S(1S,9S)]5-(3-Chloro-2-oxy-4H-pyrido[1,2-a]pyrimidin-4-one)-3-[6,10-dioxo-9-(methylsulphonyl)amino-1,2,3,4,7,8,9,10-octahydro-6H-pyridazino[1,2-a][1,2]diazepine-1-carboxamido]-4-oxopentanoic acid]				IC50 ([1]; Table 17): 0.55 µM
O=C[C@H](CC(=O)O)NC(=O)[C@@H]1CCCN2C(=O)CCN(NC(=O)/C=C/c3ccc(Cl)c(Cl)c3)C(=O)N12 [Compound 1115]		0.25		
O=C[C@H](CC(=O)O)NC(=O)[C@@H]1CCCN2C(=O)CCN(NC(=O)/C=C/c3ccc4c(c3)OCO4)C(=O)N12 [Compound 1116]		0.215		
O=C[C@H](CC(=O)O)NC(=O)[C@@H]1CCCN2C(=O)CCN(NC(=O)CC3CCCCC3)C(=O)N12 [Compound 1118]		0.38		
O=C[C@H](CC(=O)O)NC(=O)[C@@H]1CCCN2C(=O)CCN(NC(=O)CCC3CCCCC3)C(=O)N12 [Compound 1119]		0.515		
O=C[C@H](CC(=O)O)NC(=O)[C@@H]1CCCN2C(=O)CCN(NC(=O)C(=O)Nc3ccc(Cl)cc3)C(=O)N12 [Compound 1120]		0.095		
O=C[C@H](CC(=O)O)NC(=O)[C@@H]1CCCN2C(=O)CCN(NC(=O)Cc3ccc4c(c3)OCO4)C(=O)N12 [Compound 1121]		0.17		
Cc1cc(C)c(CC(=O)NN2CCC(=O)N3CCC[C@@H](C(=O)N[C@H](C=O)CC(=O)O)N3C2=O)c(C)c1 [Compound 1122]		0.4		
COc1cc(C(=O)C(=O)NN2CCC(=O)N3CCC[C@@H](C(=O)N[C@H](C=O)CC(=O)O)N3C2=O)cc(OC)c1OC [Compound 1124]		0.27		

More lines, main results first:

Ki (ICE; Table 5) [µM]	Ki (ICE; Table 17) [µM]	Structure (SMILES)	IC50 [1, 2] [µM]	further results
1.2		CC(=O)N[C@H]1CCC(=O)N2CCC[C@@H](C(=O)N[C@H](C=O)CC(=O)O)N2C1=O [Compound 214c, [3S(1S,9S)]3-(9-Acetylamino-6,10-dioxo-1,2,3,4,7,8,9,10-octahydro-6H-pyridazino-[1,2-a][1,2]diazepine-1-carboxamido)-4-oxobutanoic acid]	5	
0.6		CS(=O)(=O)N[C@H]1CCC(=O)N2CCC[C@@H](C(=O)N[C@@H](CC(=O)O)C(=O)c3ncc(-c4c(Cl)cccc4Cl)o3)N2C1=O [Compound 220b, [3S(1S,9S)]-4-[5-(2,6-Dichlorophenyl)oxazol-2-yl]-3-(6,10-dioxo-9-methylsulphonylamino-1,2,3,4,7,8,9,10-octahydro-6H-pyridazino[1,2-a][1,2]diazepine-1-carboxamido)-4-oxobutanoic acid]	2.12	
0.5		O=C[C@@H](CCC(=O)O)NC(=O)[C@@H]1CCCN2C(=O)CC[C@H](NC(=O)c3ccccc3)C(=O)N12 [Compound 238e, [4R,(1S,9S)]-4-[9-(Benzoylamino)-6,10-dioxo-1,2,3,4,7,8,9,10-octahydro-6H-pyridazino-[1,2-a][1,2]diazepine-1-carboxamido]-5-oxopentanoic acid]	4.25	
